In ChEMBL document CHEMBL2074214, “Penetration of amitriptyline, but not of fluoxetine, into brain is enhanced in mice with blood-brain barrier deficiency due to mdr1a P-glycoprotein gene disruption” (Neuropsychopharmacology, 2000):

Biological target: ATP-dependent translocase ABCB1 (Mus musculus, UniProt P21447)
Assay: TP_TRANSPORTER: increase in brain concentration in mdr1a(-/-) mouse
Type: functional, organism-based
Details: in vivo

ATP-dependent translocase ABCB1, sequence (P21447 whole entry): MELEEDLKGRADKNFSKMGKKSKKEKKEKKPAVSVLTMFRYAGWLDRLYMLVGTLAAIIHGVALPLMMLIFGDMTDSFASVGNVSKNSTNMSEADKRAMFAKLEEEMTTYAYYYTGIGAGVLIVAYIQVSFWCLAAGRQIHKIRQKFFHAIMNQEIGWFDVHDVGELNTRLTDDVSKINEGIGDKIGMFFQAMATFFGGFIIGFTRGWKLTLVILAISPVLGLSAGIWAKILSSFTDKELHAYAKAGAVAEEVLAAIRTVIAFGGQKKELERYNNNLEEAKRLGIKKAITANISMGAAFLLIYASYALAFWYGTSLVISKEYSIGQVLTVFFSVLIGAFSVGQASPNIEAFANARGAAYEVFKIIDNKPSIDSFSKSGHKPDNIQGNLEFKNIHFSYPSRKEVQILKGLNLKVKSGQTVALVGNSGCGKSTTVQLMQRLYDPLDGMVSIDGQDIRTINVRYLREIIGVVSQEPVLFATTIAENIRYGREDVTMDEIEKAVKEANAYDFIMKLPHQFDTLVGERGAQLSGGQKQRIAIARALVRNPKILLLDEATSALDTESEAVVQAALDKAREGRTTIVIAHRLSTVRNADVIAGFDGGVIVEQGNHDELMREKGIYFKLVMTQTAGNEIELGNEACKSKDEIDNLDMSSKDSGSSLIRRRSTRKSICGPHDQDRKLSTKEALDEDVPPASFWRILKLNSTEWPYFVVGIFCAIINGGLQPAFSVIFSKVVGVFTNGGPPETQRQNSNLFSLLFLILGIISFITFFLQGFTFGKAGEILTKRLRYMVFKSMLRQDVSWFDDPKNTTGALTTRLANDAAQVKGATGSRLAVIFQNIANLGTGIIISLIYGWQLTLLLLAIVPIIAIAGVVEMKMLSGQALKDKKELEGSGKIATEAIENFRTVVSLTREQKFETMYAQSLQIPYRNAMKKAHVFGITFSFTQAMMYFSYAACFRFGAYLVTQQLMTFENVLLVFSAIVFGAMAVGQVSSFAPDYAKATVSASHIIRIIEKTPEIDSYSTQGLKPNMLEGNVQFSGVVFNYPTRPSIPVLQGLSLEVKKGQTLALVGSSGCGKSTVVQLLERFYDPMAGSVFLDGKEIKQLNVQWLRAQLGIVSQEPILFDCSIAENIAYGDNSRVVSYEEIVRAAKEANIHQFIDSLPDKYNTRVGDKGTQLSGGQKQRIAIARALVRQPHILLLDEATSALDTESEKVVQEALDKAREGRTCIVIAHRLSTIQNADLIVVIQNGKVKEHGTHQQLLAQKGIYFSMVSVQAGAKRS

`CN(C)CCC=C1c2ccccc2CCc2ccccc21` [AMITRIPTYLINE] was tested, and the Activity was “substrate [+]”.

In the case of `CNCCC=C1c2ccccc2CCc2ccccc21` [NORTRIPTYLINE], the Activity is reported as “substrate [+]”.
